From ChEMBL document CHEMBL1131915, “Substituted furans as inhibitors of the PDE4 enzyme” (Bioorg Med Chem Lett, 1999)

Each compound was assayed against 3',5'-cyclic-AMP phosphodiesterase 4A (Homo sapiens, UniProt P27815) (assay: PDE4A activity assessed using human recombinant purified GST-PDE4A248).
Sequence of 3',5'-cyclic-AMP phosphodiesterase 4A (P27815 whole entry): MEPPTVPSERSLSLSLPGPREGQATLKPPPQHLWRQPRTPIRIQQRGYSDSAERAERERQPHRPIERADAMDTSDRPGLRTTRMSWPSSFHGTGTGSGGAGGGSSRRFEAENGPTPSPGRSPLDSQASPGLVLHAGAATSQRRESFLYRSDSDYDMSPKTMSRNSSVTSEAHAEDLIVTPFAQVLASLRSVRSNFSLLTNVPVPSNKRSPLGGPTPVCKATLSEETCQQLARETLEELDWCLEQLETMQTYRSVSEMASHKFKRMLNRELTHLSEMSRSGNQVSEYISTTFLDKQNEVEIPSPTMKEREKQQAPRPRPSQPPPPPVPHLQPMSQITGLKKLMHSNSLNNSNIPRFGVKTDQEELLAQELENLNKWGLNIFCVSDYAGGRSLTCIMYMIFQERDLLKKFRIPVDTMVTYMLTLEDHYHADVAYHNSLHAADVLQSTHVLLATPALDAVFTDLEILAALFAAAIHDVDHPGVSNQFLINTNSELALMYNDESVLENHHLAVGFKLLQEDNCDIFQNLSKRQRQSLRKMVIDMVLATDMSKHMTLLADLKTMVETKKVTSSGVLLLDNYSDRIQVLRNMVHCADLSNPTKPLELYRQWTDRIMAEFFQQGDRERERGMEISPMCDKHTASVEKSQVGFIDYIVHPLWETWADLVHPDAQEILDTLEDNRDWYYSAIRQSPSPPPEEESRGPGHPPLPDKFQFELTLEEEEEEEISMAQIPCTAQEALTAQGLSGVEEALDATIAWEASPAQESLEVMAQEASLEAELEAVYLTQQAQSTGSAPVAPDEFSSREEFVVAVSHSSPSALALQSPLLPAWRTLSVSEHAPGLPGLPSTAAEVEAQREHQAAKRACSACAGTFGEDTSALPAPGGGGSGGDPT

Structure (SMILES)	IC50 [nM]
COc1ccc(-c2ccc(-c3ccccn3)o2)cc1OC1CCCC1	25
COc1ccc(-c2oc(-c3ccccn3)cc2S(=O)(=O)c2ccccc2)cc1OC1CCCC1	770
c1ccc(-c2cc(N3CCOCC3)c(-c3ccccc3)o2)cc1	2300
COc1ccc(-c2ccc(-c3ccc(OC)c(OC)c3)o2)cc1OC	560
c1ccc(-c2ccc(-c3ccccc3)o2)cc1	> 10000
COc1ccc(-c2cc(C(C)=O)c(-c3ccc(OC)c(OC)c3)o2)cc1OC	120
COc1ccc(-c2ccc(-c3ccncc3)o2)cc1OC1CCCC1	65

More lines, now with the values ahead:

IC50 [nM]	Structure (SMILES)
740	COc1ccc(-c2cc(S(=O)(=O)c3ccccc3)c(-c3ccccn3)o2)cc1OC1CCCC1
590	COc1ccc(-c2oc(-c3ccccn3)cc2C(=O)c2ccccc2)cc1OC1CCCC1
370	COc1ccc(-c2ccc(-c3cccnc3)o2)cc1OC1CCCC1
340	O=C(c1ccccc1)c1cc(-c2ccccc2)oc1-c1ccccc1
190	COc1ccc(-c2ccc(-c3ccc4ccccc4n3)o2)cc1OC1CCCC1
44	COc1ccc(-c2ccc(-c3ccc(OC)c(OC4CCCC4)c3)o2)cc1OC1CCCC1

Species on record: Mustela putorius furo
Experiment: Emetic effect in ferret model, threshold value
Assay type: functional

Structure (SMILES)	Threshold value [mg/kg]
COc1ccc(-c2ccc(-c3ccccn3)o2)cc1OC1CCCC1	10
COc1ccc([C@@H]2CNC(=O)C2)cc1OC1CCCC1 [(-)-ROLIPRAM]	0.3
